± gives the expanded uncertainty stated by the source.
Test: xn = mol fraction of the nth substance listed
Settings: 85 kPa, Liquid; for viscosity: Concentric cylinders viscometry; for mass density: Vibrating tube method

NCCCO [3-amino-1-propanol] + CCC(C)O
Settings	mass density [kg/m3]	viscosity [mPa·s]
293.15 K, x2 = 0	987.8 ± 1.3	37.33 ± 2.3
293.15 K, x2 = 0.081	971.2 ± 1.2	30.36 ± 1.8
293.15 K, x2 = 0.1607	955.5 ± 1.2	25.31 ± 1.5
293.15 K, x2 = 0.2395	940.2 ± 1.1	20.96 ± 1.3
293.15 K, x2 = 0.3499	919.3 ± 1.1	15.85 ± 0.96
293.15 K, x2 = 0.4394	902.8 ± 1.1	12.63 ± 0.76
293.15 K, x2 = 0.5602	881 ± 1.1	9.361 ± 0.57
293.15 K, x2 = 0.658	863.9 ± 1.1	7.574 ± 0.46
293.15 K, x2 = 0.7408	849.7 ± 1	6.103 ± 0.37
293.15 K, x2 = 0.8511	830.9 ± 1	4.795 ± 0.29
293.15 K, x2 = 0.9396	816.2 ± 1	4.079 ± 0.25
298.15 K, x2 = 0	984.3 ± 1.2	28.59 ± 1.7
298.15 K, x2 = 0.081	967.8 ± 1.2	23.43 ± 1.4
298.15 K, x2 = 0.1607	951.9 ± 1.2	19.73 ± 1.2
298.15 K, x2 = 0.2395	936.6 ± 1.1	16.46 ± 1
298.15 K, x2 = 0.3499	915.6 ± 1.1	12.59 ± 0.76
298.15 K, x2 = 0.4394	899 ± 1.1	10.15 ± 0.61
298.15 K, x2 = 0.5602	877.2 ± 1.1	7.634 ± 0.46
298.15 K, x2 = 0.658	860 ± 1.1	6.253 ± 0.38
298.15 K, x2 = 0.7408	845.7 ± 1	5.076 ± 0.31
298.15 K, x2 = 0.8511	827 ± 1	4.016 ± 0.24
298.15 K, x2 = 0.9396	812.2 ± 1	3.403 ± 0.2
303.15 K, x2 = 0	980.3 ± 1.2	22.31 ± 1.4
303.15 K, x2 = 0.081	964 ± 1.2	18.39 ± 1.1
303.15 K, x2 = 0.1607	948.1 ± 1.2	15.6 ± 0.95
303.15 K, x2 = 0.2395	932.7 ± 1.1	13.11 ± 0.8
303.15 K, x2 = 0.3499	911.6 ± 1.1	10.15 ± 0.62
303.15 K, x2 = 0.4394	895 ± 1.1	8.261 ± 0.5
303.15 K, x2 = 0.5602	873.2 ± 1.1	6.309 ± 0.38
303.15 K, x2 = 0.658	856 ± 1.1	5.213 ± 0.32
303.15 K, x2 = 0.7408	841.7 ± 1	4.261 ± 0.26
303.15 K, x2 = 0.8511	823 ± 1	3.377 ± 0.2
303.15 K, x2 = 0.9396	808.2 ± 1	2.853 ± 0.17
308.15 K, x2 = 0	976.2 ± 1.2	17.67 ± 1.1
308.15 K, x2 = 0.081	959.9 ± 1.2	14.66 ± 0.89
308.15 K, x2 = 0.1607	944.2 ± 1.2	12.51 ± 0.76
308.15 K, x2 = 0.2395	928.7 ± 1.1	10.58 ± 0.64
308.15 K, x2 = 0.3499	907.6 ± 1.1	8.29 ± 0.5
308.15 K, x2 = 0.4394	890.9 ± 1.1	6.808 ± 0.41
308.15 K, x2 = 0.5602	869 ± 1.1	5.251 ± 0.32
308.15 K, x2 = 0.658	851.9 ± 1.1	4.371 ± 0.26
308.15 K, x2 = 0.7408	837.6 ± 1	3.604 ± 0.22
308.15 K, x2 = 0.8511	818.9 ± 1	2.866 ± 0.17
308.15 K, x2 = 0.9396	803.9 ± 1	2.411 ± 0.15
313.15 K, x2 = 0	972.3 ± 1.2	14.21 ± 0.86
313.15 K, x2 = 0.081	956.1 ± 1.2	11.85 ± 0.72
313.15 K, x2 = 0.1607	940.2 ± 1.2	10.16 ± 0.62
313.15 K, x2 = 0.2395	924.9 ± 1.1	8.658 ± 0.53
313.15 K, x2 = 0.3499	903.7 ± 1.1	6.856 ± 0.42
313.15 K, x2 = 0.4394	886.9 ± 1.1	5.676 ± 0.34
313.15 K, x2 = 0.5602	865 ± 1.1	4.422 ± 0.27
313.15 K, x2 = 0.658	847.8 ± 1.1	3.715 ± 0.23
313.15 K, x2 = 0.7408	833.5 ± 1	3.07 ± 0.19
313.15 K, x2 = 0.8511	814.7 ± 1	2.446 ± 0.15
313.15 K, x2 = 0.9396	799.6 ± 1	2.053 ± 0.12
318.15 K, x2 = 0	968.5 ± 1.2	11.58 ± 0.7
318.15 K, x2 = 0.081	952.4 ± 1.2	9.715 ± 0.59
318.15 K, x2 = 0.1607	936.6 ± 1.2	8.364 ± 0.51
318.15 K, x2 = 0.2395	921.1 ± 1.1	7.173 ± 0.44
318.15 K, x2 = 0.3499	899.8 ± 1.1	5.733 ± 0.35
318.15 K, x2 = 0.4394	882.9 ± 1.1	4.781 ± 0.29
318.15 K, x2 = 0.5602	860.9 ± 1.1	3.758 ± 0.23
318.15 K, x2 = 0.658	843.6 ± 1.1	3.174 ± 0.19
318.15 K, x2 = 0.7408	829.3 ± 1	2.634 ± 0.16
318.15 K, x2 = 0.8511	810.4 ± 1	2.103 ± 0.13
318.15 K, x2 = 0.9396	795.2 ± 1	1.76 ± 0.11
323.15 K, x2 = 0	964.9 ± 1.2	9.546 ± 0.58
323.15 K, x2 = 0.081	948.9 ± 1.2	8.057 ± 0.49
323.15 K, x2 = 0.1607	933 ± 1.2	6.971 ± 0.42
323.15 K, x2 = 0.2395	917.5 ± 1.1	6.012 ± 0.36
323.15 K, x2 = 0.3499	896.1 ± 1.1	4.85 ± 0.29
323.15 K, x2 = 0.4394	879.2 ± 1.1	4.064 ± 0.25
323.15 K, x2 = 0.5602	857 ± 1.1	3.228 ± 0.2
323.15 K, x2 = 0.658	839.7 ± 1.1	2.731 ± 0.17
323.15 K, x2 = 0.7408	825.2 ± 1	2.275 ± 0.14
323.15 K, x2 = 0.8511	806.1 ± 1	1.82 ± 0.11
323.15 K, x2 = 0.9396	790.8 ± 1	1.519 ± 0.092

— the NIST ThermoML archive (doi:10.1021/acs.jced.8b01097)
